These results are taken from ChEMBL document CHEMBL1201862, “PubChem BioAssay data set” (2004).

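In this assay, cells in 96-well plates receive the compound at five concentrations for 48 hours. Endpoints are linearly interpolated between the surrounding concentrations. Abbreviation: GI50, concentration required for 50% inhibition of growth.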 The source made the active and inactive calls. Cut-off read from the data, not from the text of the source: active = GI50 up to about 1.1 µM and inactive = higher. A value given as a limit tells only on which side of the number the result lay.

Holding throughout (assay): NCI tumour cell line growth inhibition, 48 h
In assay [1] the test system is 786-0.
The subject of assay [2] is ACHN.
The subject of assay [3] is COLO 205.
The test system of assay [4] is HCT-116.
The test system of assay [5] is HOP-62.
Assay [6] deals with HOP-92.
The subject of assay [7] is IGROV-1.
The test system of assay [8] is MOLT-4.
Assay [9] concerns Malme-3M.
Assay [10] relates to OVCAR-3.
Assay [11] concerns SF-268.
Assay [12] concerns U-251.
Assay [13] has as its system UACC-257.
The test system of assay [14] is NCI-H522.
The subject of assay [15] is RPMI-8226.

In the case of `COc1cccc(C2SCc3nc4ccccc4n32)c1` (configuration not stated), the GI50 in assay [1] is > 100 µM (inactive); in assay [2], 39.1 µM (inactive); in assay [3] it was > 100 µM (inactive); in [4], 39.7 µM (inactive); in assay [5], > 100 µM (inactive); in [6], 12.2 µM (inactive). Moreover, the GI50 in assay [7] was 45.5 µM (inactive); in [8] it was 66.1 µM (inactive); in assay [9] it was 54.6 µM (inactive); in [10], 35.2 µM (inactive); in [11], 73.1 µM (inactive); in assay [12] it was 76.6 µM (inactive). Besides, the GI50 in [13] is 44.3 µM (inactive).

Take `Cc1nc2c(=O)[nH]c(=O)n(C)c2[nH]c1=O.c1ccncc1`: the GI50 in [1], in assay [2], in assay [3], in assay [4], in [5] and in assay [6] was > 100 µM (inactive) throughout. The GI50 in assay [7], in [8], in assay [9], in assay [14], in assay [10] and in [15] was > 100 µM (inactive) throughout. The GI50 in [11], in assay [12] and in assay [13] was > 100 µM (inactive) each time.

Regarding `O=c1c2cccnc2ncn1CCCN1CCCCC1`, the GI50 in assay [1], in [2], in [3], in assay [4], in assay [5] and in assay [6] was > 100 µM (inactive) each time. For the same compound, the GI50 in assay [7], in [8], in assay [9], in assay [14], in [10] and in assay [11] was > 100 µM (inactive) throughout. The GI50 in [12] is > 100 µM (inactive).

`COc1ccc(NN=C2C(=O)CCC2=O)cc1`: the GI50 was > 100 µM (inactive) in assay [1]; 74.3 µM (inactive) in [2]; 47.2 µM (inactive) in assay [3]; > 100 µM (inactive) in assay [4]; 50 µM (inactive) in [5]; > 100 µM (inactive) in [6]. Moreover, the GI50 in assay [7], in assay [8], in assay [9], in assay [10], in assay [11] and in assay [12] was > 100 µM (inactive) in each case. The GI50 in assay [13] was 52.4 µM (inactive).

Take `CCOC(=O)C1=C(Nc2ccc(Cl)c(Cl)c2)OC/C1=N\NC(=O)Cc1ccccc1`: the GI50 in assay [1] is > 100 µM (inactive); in assay [3], > 100 µM (inactive); in [4], 99.8 µM (inactive); in assay [5] it was > 100 µM (inactive); in assay [7], > 100 µM (inactive); in [8] it was 61.1 µM (inactive). Also, the GI50 in assay [9] was > 100 µM (inactive); in assay [14], > 100 µM (inactive); in assay [10], > 100 µM (inactive); in [15], 68.7 µM (inactive); in assay [11], > 100 µM (inactive); in [12], > 100 µM (inactive). Further, the GI50 in assay [13] is 63.7 µM (inactive).

Turning to `CC(=O)N(CCN)CCN`, the GI50 in assay [1] was > 10 µM (inactive); in assay [2] it was > 100 µM (inactive); in assay [3], > 10 µM (inactive); in assay [4], > 10 µM (inactive); in assay [5], > 10 µM (inactive); in assay [6], > 10 µM (inactive). Further, the GI50 was > 10 µM (inactive) in [8]; > 10 µM (inactive) in assay [14]; > 10 µM (inactive) in [10]; > 10 µM (inactive) in [15]; > 100 µM (inactive) in assay [11]; > 10 µM (inactive) in assay [12]. For the same compound, the GI50 in assay [13] is > 10 µM (inactive).

In the case of `CCC(C)n1c(C)nc2c1C(=O)c1ccccc1C2=O` (configuration not stated), the GI50 in [1] is 61.2 µM (inactive); in [2], 46.9 µM (inactive); in assay [3] it was 43.5 µM (inactive); in [4] it was 31.6 µM (inactive); in assay [5], 58.2 µM (inactive); in [6] it was 22.1 µM (inactive). Besides, the GI50 is 45.1 µM (inactive) in [7]; 28.1 µM (inactive) in assay [8]; 32.2 µM (inactive) in [9]; 51.3 µM (inactive) in [14]; 32.5 µM (inactive) in [10]; 30.8 µM (inactive) in assay [11]. For the same compound, the GI50 was 44.8 µM (inactive) in assay [12] and 27.9 µM (inactive) in [13].

Consider `O=C1CCC2(c3ccc(Cl)cc3)Nc3ccccc3N12` (configuration not stated), for which the GI50 in assay [1] was > 100 µM (inactive); in assay [2] it was 60.4 µM (inactive); in assay [3] it was > 100 µM (inactive); in assay [4] it was 57 µM (inactive); in assay [5], > 100 µM (inactive); in assay [6] it was 19.9 µM (inactive). Besides, the GI50 in [7] was > 100 µM (inactive); in [8] it was 30.3 µM (inactive); in [9], > 100 µM (inactive); in assay [14] it was 55.5 µM (inactive); in assay [15] it was 53.7 µM (inactive); in assay [11] it was 83.9 µM (inactive). In addition, the GI50 in [12] and in [13] was > 100 µM (inactive) each time.

Turning to `O=C(NC(Cc1ccccc1)C(=O)CCl)OCc1ccccc1` (configuration not stated), the GI50 in assay [1] was 3.83 µM (inactive); in [2] it was 10.1 µM (inactive); in [3] it was 7.16 µM (inactive); in assay [4] it was 13.6 µM (inactive); in assay [5] it was 15.3 µM (inactive); in [6] it was 13 µM (inactive). Besides, the GI50 is 13.2 µM (inactive) in assay [7]; 11.4 µM (inactive) in assay [9]; 1.67 µM (inactive) in assay [14]; 5.24 µM (inactive) in assay [10]; 4.06 µM (inactive) in [15]; 5.05 µM (inactive) in [11]. The GI50 in [12] is 10.8 µM (inactive); in assay [13], 13 µM (inactive).

With `c1ccc(-c2ccnc3c2ccc2c(-c4ccccc4)ccnc23)cc1`, the GI50 is 2.64 µM (inactive) in assay [1]; 1.11 µM (active) in [2]; 2.98 µM (inactive) in [3]; 0.555 µM (active) in [4]; 1.89 µM (inactive) in [5]; 0.931 µM (active) in [7]. The GI50 in assay [8] was 0.514 µM (active); in [9] it was 4.06 µM (inactive); in assay [14] it was 1.46 µM (inactive); in assay [10], 2.47 µM (inactive); in assay [11], 3.12 µM (inactive); in assay [12] it was 1.17 µM (inactive). Further, the GI50 in assay [13] is 2.28 µM (inactive).

Consider `Cc1coc2c1C(=O)C(=O)c1ccccc1-2`, for which the GI50 in [1] was 1.84 µM (inactive); in [3] it was 1.5 µM (inactive); in assay [4], 0.301 µM (active); in assay [5] it was 1.64 µM (inactive); in assay [6], 0.401 µM (active); in assay [7], 1.83 µM (inactive). The GI50 in assay [8] is 2.21 µM (inactive); in assay [9], 1.58 µM (inactive); in assay [14], 1.72 µM (inactive); in assay [10], 1.06 µM (active); in assay [12], 1.61 µM (inactive); in assay [13] it was 0.21 µM (active).

On to `CNS(=O)(=O)NN(C)S(=O)(=O)c1ccc(Cl)cc1`, for which the GI50 in assay [1], in assay [2], in [3], in [4], in assay [5] and in assay [7] was > 100 µM (inactive) each time. Besides, the GI50 in [8], in assay [9], in assay [14], in [10], in [15] and in assay [11] was > 100 µM (inactive) each time. The GI50 was 83 µM (inactive) in assay [12] and > 100 µM (inactive) in assay [13].

As to `CNS(=O)(=O)NN(C)S(=O)(=O)c1ccc(C)cc1`, the GI50 in assay [1], in assay [2], in assay [3], in assay [4], in [5] and in assay [6] was > 100 µM (inactive) in each case. Also, the GI50 in [7], in [8], in [9], in [14], in assay [10] and in assay [15] was > 100 µM (inactive) each time. Moreover, the GI50 in assay [11] and in [13] was > 100 µM (inactive) in each case.

For the compound `COc1ccc(-c2onc(-c3c(C)cc(C)cc3C)c2C2=NCCN2)cc1`, the GI50 was 31.1 µM (inactive) in assay [1]; 86.3 µM (inactive) in [2]; 20.4 µM (inactive) in [3]; 20.4 µM (inactive) in assay [4]; 59.2 µM (inactive) in assay [5]; > 100 µM (inactive) in [7]. Besides, the GI50 in assay [8] is 39.8 µM (inactive); in assay [9], 33.3 µM (inactive); in [14] it was > 10 µM (inactive); in assay [10], > 10 µM (inactive); in [15], 29 µM (inactive); in assay [11] it was 36.7 µM (inactive). The GI50 in [12] is 18.9 µM (inactive); in assay [13], 18.7 µM (inactive).

Consider `COC(OC)c1cc2c(cc1C=O)OCO2`, for which the GI50 was > 100 µM (inactive) in assay [1]; > 100 µM (inactive) in assay [2]; > 100 µM (inactive) in assay [4]; > 100 µM (inactive) in [5]; 80.7 µM (inactive) in [6]; > 100 µM (inactive) in assay [7]. Besides, the GI50 was > 100 µM (inactive) in [8]; 0.276 µM (active) in assay [9]; > 100 µM (inactive) in assay [14]; 75.5 µM (inactive) in [10]; > 100 µM (inactive) in assay [11]; > 100 µM (inactive) in assay [12]. For the same compound, the GI50 in assay [13] is > 100 µM (inactive).
